For experiment [1], the system named is S. aureus. Description: MIC by broth microdilution, S. aureus. It counts as cell-based, Staphylococcus aureus. To be noted: cation adjusted Mueller Hinton broth, 35° C. 20 hours.
For experiment [2], the system named is A. baumannii. The experiment can be described thus: MIC by broth microdilution, A. baumannii (WT). It counts as cell-based, Acinetobacter baumannii. To be noted: for MIC: Acinetobacter baumannii. On the technique in general: Broth dilution looks for growth in wells or tubes with falling amounts of substance.
The subject of experiment [3] is Enterococcus faecium (strain NCTC 12204). Description: MIC by broth microdilution, E. faecium. It counts as cell-based. To be noted: strain NCTC 12204, cation adjusted Mueller Hinton broth.
In experiment [4] the test system is Enterococcus faecalis (strain ATCC 51575). The experiment can be described thus: MIC by broth microdilution, E. faecalis. To be noted: strain ATCC 51575, cation adjusted Mueller Hinton broth. It counts as cell-based.
The subject of experiment [5] is Staphylococcus epidermidis (strain ATCC 12228). Description: MIC by broth microdilution, S. epidermidis. It counts as cell-based. To be noted: strain ATCC 12228, cation adjusted Mueller Hinton broth.
The test system of experiment [6] is S. pneumoniae (strain ATCC 49619). Description: MIC by broth microdilution, S. pneumoniae. It counts as cell-based, Streptococcus pneumoniae. To be noted: strain ATCC 49619, cation adjusted Mueller Hinton broth + 5% laked horse blood.
For experiment [7], the system named is S. pyogenes (strain IHMA 1117021). The experiment can be described thus: MIC by broth microdilution, S. pyogenes. It counts as cell-based, Streptococcus pyogenes. To be noted: strain IHMA 1117021, cation adjusted Mueller Hinton broth + 5% laked horse blood.
In experiment [8] the test system is H. influenzae (strain ATCC 49247). Description: MIC by broth microdilution, H. influenzae. To be noted: strain ATCC 49247, Hemophilus test medium broth. It counts as cell-based, Hemophilus influenzae.
Experiment [9] concerns M. abscessus (strain ATCC 19977). The experiment can be described thus: MIC by broth microdilution, M. abscessus. It counts as cell-based, Mycobacterium abscessus. To be noted: strain ATCC 19977, Middlebrook 7H9 broth + ADC.
The test system of experiment [10] is M. tuberculosis (H37Rv strain ATCC 27294). It counts as cell-based, Mycobacterium tuberculosis.
The subject of experiment [11] is M. smegmatis (strain ATCC 700084). Description: MIC, M. smegmatis (BacTiter-Glo). It counts as cell-based, Mycobacterium smegmatis. To be noted: strain ATCC 700084, Middlebrook 7H9 + ADC, 90% growth inhibition, 20 hours.
The test system of experiment [12] is A. baumannii RpoB H535Q. The experiment can be described thus: microbe, parasite or virus in culture. It counts as cell-based, Acinetobacter baumannii. To be noted: for MIC: Acinetobacter baumannii, RPOBH535Q, 20 h.
For experiment [13], the system named is A. baumannii RpoB H535C. Description: microbe, parasite or virus in culture. It counts as cell-based, Acinetobacter baumannii. To be noted: for MIC: Acinetobacter baumannii, RPOBH535C, 20 h.
In experiment [14] the test system is A. baumannii RpoB H535L. Description: microbe, parasite or virus in culture. To be noted: for MIC: Acinetobacter baumannii, RPOBH535L, 20 h. It counts as cell-based, Acinetobacter baumannii.
The subject of experiment [15] is A. baumannii RpoB H535Q/S521T. Description: microbe, parasite or virus in culture. It counts as cell-based, Acinetobacter baumannii. To be noted: Acinetobacter baumannii, RPOBH535Q/S521T.
Experiment [16] concerns A. baumannii RpoB L542F. Description: microbe, parasite or virus in culture. It counts as cell-based, Acinetobacter baumannii. To be noted: Acinetobacter baumannii, RPOBL542F, 20 h.

Structures are written as SMILES. ≈ marks a conversion by molar mass, not a printed value. Like-named read-outs stand apart in the source and are kept apart here. Bounds are passed on as bounds.

In the case of `CO[C@H]1/C=C/O[C@@]2(C)Oc3c(C)c(O)c4c(c3C2=O)C2=NC3(NC2=C(NC(=O)/C(C)=C\C=C\[C@H](C)[C@H](O)[C@@H](C)[C@@H](O)[C@@H](C)[C@H](OC(C)=O)[C@@H]1C)C4=O)C1CN(C)CC3CN(C)C1` (some centres unmarked) [Compound 18], the MIC S. aureus in experiment [1] turned out to be 0.016 µg/mL (≈ 0.0186 µM). The compound further registered an MIC A. baumannii in experiment [2] (RPMI medium supplemented with 10% FCS, 35° C. 20 hours) of 8 ng/mL (≈ 0.0093 µM). For the same compound, in experiment [2] (Table 4, RPMI + FCS), the “A. baumannii MIC, WT” value was determined as 8 ng/mL. This compound registered an MIC E. faecium in [3] of 0.125 µg/mL (≈ 0.145 µM). In experiment [4], this compound returned an MIC E. faecalis of 2 µg/mL (≈ 2.33 µM). Also, the MIC S. epidermidis in experiment [5] is less than 2 ng/mL. The MIC S. pneumoniae in [6] was less than 2 ng/mL. For the same compound, the MIC S. pyogenes in experiment [7] was less than 2 ng/mL. Moreover, the MIC H. influenzae in [8] is 0.125 µg/mL (≈ 0.145 µM). The MIC M. abscessus in [9] is 32 µg/mL. Moreover, the MIC M. tuberculosis in [10] was 0.01 µg/mL (≈ 0.0116 µM). For the same compound, the MIC M. smegmatis in experiment [11] was determined as 1.11 µg/mL. Also, in experiment [12] (Table 4, RPMI + FCS), the “A. baumannii MIC, RpoB H535Q” value worked out at 0.03 mg/L. For the same compound, the “A. baumannii MIC, RpoB H535C” value in experiment [13] (Table 4, RPMI + FCS) amounted to 0.25 mg/L. Further, in [14] (Table 4, RPMI + FCS), the “A. baumannii MIC, RpoB H535L” value turned out to be 4 mg/L.

As to `CO[C@H]1/C=C/O[C@@]2(C)Oc3c(C)c(O)c4c(c3C2=O)C2=NC3(CCN(CC(C)C)CC3)NC2=C(NC(=O)/C(C)=C\C=C\[C@H](C)[C@H](O)[C@@H](C)[C@@H](O)[C@@H](C)[C@H](OC(C)=O)[C@@H]1C)C4=O` [Rifabutin, reference compound], the MIC in experiment [1] (Staphylococcus aureus, read-out: MIC S. aureus) was 0.016 µg/mL (≈ 0.0189 µM); in [2] (20 h, Table 4, RPMI + FCS, read-out: A. baumannii MIC, WT) it was not above 2 ng/mL; in [2] (read-out: MIC A. baumannii, RPMI medium supplemented with 10% FCS, 35° C. 20 hours), less than 2 ng/mL; in [3] (Enterococcus faecium, NCTC12204, read-out: MIC E. faecium), 0.125 µg/mL (≈ 0.148 µM); in experiment [4] (Enterococcus faecalis, ATCC51575, read-out: MIC E. faecalis) it was 4 µg/mL (≈ 4.72 µM); in [5] (Staphylococcus epidermidis, ATCC12228, read-out: MIC S. epidermidis), 4 ng/mL (≈ 0.00472 µM). Besides, the MIC in [8] (Haemophilus influenzae, ATCC49247, read-out: MIC H. influenzae) was 0.5 µg/mL (≈ 0.59 µM); in [12] (read-out: A. baumannii MIC, RpoB H535Q, Table 4, RPMI + FCS), 0.004 µg/mL; in experiment [12] (read-out: MIC, RpoB mutation H535Q, Table 5 part 1 c2, 1st H535Q isolate, RPMI + 10% FCS) it was 0.03 µg/mL; in experiment [12] (read-out: MIC, RpoB mutation H535Q, Table 5 part 1 c3, 2nd H535Q isolate, RPMI + 10% FCS), more than 32 µg/mL; in experiment [12] (read-out: MIC, RpoB mutation H535Q, Table 5 part 1 c4, 3rd H535Q isolate, RPMI + 10% FCS), 16 µg/mL; in [13] (read-out: A. baumannii MIC, RpoB H535C, Table 4, RPMI + FCS) it was 0.03 µg/mL. Besides, the MIC in experiment [13] (read-out: MIC, RpoB mutation H535C, Table 5 part 2 c1, 1st H535C isolate, RPMI + 10% FCS) is 0.06 µg/mL; in experiment [13] (read-out: MIC, RpoB mutation H535C, Table 5 part 2 c2, 2nd H535C isolate, RPMI + 10% FCS) it was 0.016 µg/mL; in [13] (read-out: MIC, RpoB mutation H535C, Table 5 part 2 c3, 3rd H535C isolate, RPMI + 10% FCS) it was 0.25 µg/mL; in experiment [13] (read-out: MIC, RpoB mutation H535C, Table 5 part 2 c4, 4th H535C isolate, RPMI + 10% FCS), more than 32 µg/mL; in [14] (read-out: A. baumannii MIC, RpoB H535L, Table 4, RPMI + FCS) it was more than 32 µg/mL; in experiment [14] (read-out: MIC, RpoB mutation H535L, Table 5 part 2 c5, 1st H535L isolate, RPMI + 10% FCS), 0.06 µg/mL. In addition, the MIC in experiment [14] (read-out: MIC, RpoB mutation H535L, Table 5 part 2 c6, 2nd H535L isolate, RPMI + 10% FCS) is 0.008 µg/mL; in experiment [14] (read-out: MIC, RpoB mutation H535L, Table 5 part 3 c1, 3rd H535L isolate, RPMI + 10% FCS), more than 32 µg/mL; in [14] (read-out: MIC, RpoB mutation H535L, Table 5 part 3 c6, 4th H535L isolate, RPMI + 10% FCS), more than 32 µg/mL; in [14] (read-out: MIC, RpoB mutation H535L, Table 5 part 3 c7, 5th H535L isolate, RPMI + 10% FCS), more than 32 µg/mL; in [15] (read-out: MIC, RpoB mutation H535Q/S521T, Table 5 part 1 c5, 1st H535Q/S521T isolate, RPMI + 10% FCS), 32 µg/mL; in [15] (read-out: MIC, RpoB mutation H535Q/S521T, Table 5 part 1 c6, 2nd H535Q/S521T isolate, RPMI + 10% FCS), 16 µg/mL. The MIC in experiment [16] (read-out: MIC, RpoB mutation L542F, Table 5 part 3 c2, 1st L542F isolate, RPMI + 10% FCS) is 0.004 µg/mL; in experiment [16] (read-out: MIC, RpoB mutation L542F, Table 5 part 3 c3, 2nd L542F isolate, RPMI + 10% FCS), 1 µg/mL.
